Literature values as cited in US20170003257A1, “WETNESS INDICATOR WITH TWO COLORANTS AND TWO STABILIZERS” (The Procter & Gamble Company, priority 2015, published 2017).
Read-outs that look alike come from different tables or passages of the source.

Assays:
[1] = Table 2 stabilizers; for pKa (1): first pKa; for pKa (2): second pKa; for pKa (3): third pKa

SMILES	pKa (1) [1]	pKa (2) [1]	further results
CC(C)CCC(=O)O [4-Methylpentanoic acid]	4.8	–	–
O=C(O)c1ccncc1 [4-Pyridinecarboxylic acid]	5.0	–	–
CC(=O)CC(=O)O [Acetoacetic acid]	3.6	–	–
N=C(N)NCCC[C@H](N)C(=O)O [Arginine]	1.8	–	–
O=C1O[C@H]([C@@H](O)CO)C(O)=C1O [Ascorbic acid]	–	11.8	–
C[N+](C)(C)CC(=O)O [Betaine]	1.83	–	–
OB(O)O [Boric acid]	9.3	12.7	pKa (3) [1]: 13.8
Oc1ccccc1O [Catechol]	9.4	12.8	–
CCCCCCCCCCN [Decylamine]	10.6	–	–
CC(=NO)C(C)=NO [Dimethylglyoxime]	10.7	12.0	–
O=C(O)c1cncc(C(=O)O)c1 [Dinicotinic acid]	2.8	–	–
NCCN [Ethylenediamine]	6.8	–	–
O=C(O)CN(CCN(CC(=O)O)CC(=O)O)CC(=O)O [Ethylenediaminetetraacetic acid (EDTA), Ethylenediaminetetraacetic acid]	−0.21	1.5	pKa (5) ([1]; fifth pKa): 6.7; pKa (4) ([1]; fourth pKa): 3.1; pKa (3) [1]: 2.2
O=C(O)C(O)CO (stereo not shown) [Glyceric acid]	3.5	–	–
O=CC(=O)O [Glyoxylic acid]	3.2	–	–
O=C(O)CCCCCC(=O)O [Heptanedioic acid]	4.7	–	–
CCCCCCCN [Heptylamine]	10.7	–	–
NCCCCCCN [Hexamethylenediamine]	11.9	10.8	–
CCCCCCN [Hexylamine]	10.6	–	–
Oc1ccc(O)cc1 [Hydroquinone]	10.3	–	–
CN(C)c1ccc(C(=C2C=CC(=[N+](C)C)C=C2)c2ccccc2)cc1 [Malachite Green]	–	–	pKa (Alkaline pH range): 12.8
CC[N+](CC)=c1ccc2nc3c(cc(N)c4ccccc43)oc-2c1 [Nile Blue]	–	–	pKa (Table 1 colorants): 9.7
N[C@@H](Cc1ccccc1)C(=O)O [Phenylalanine]	–	9.3	–
NC(C(=O)O)c1ccccc1 (stereo not shown) [Phenylglycine]	1.8	4.4	–
O=c1ccc2[n+]([O-])c3ccc(O)cc3oc-2c1 [Resazurin]	–	–	pKa (Table 1 colorants): 5.1
Cc1cc(O)c(C(C)C)cc1C1(c2cc(C(C)C)c(O)cc2C)OC(=O)c2ccccc21 [Thymolphthalein]	–	–	pKa (Table 1 colorants): 9.8

Second part, led by results:

pKa (1) [1]	pKa (2) [1]	SMILES	further results
1.1	5.2	O=C(O)c1ccccn1 [Picolinic acid]	–
9.4	12.8	Oc1ccccc1O [Pyrocatechol]	–
9.3	11.1	Oc1cccc(O)c1 [Resorcinol]	–
–	9.0	N[C@@H](CO)C(=O)O [Serine]	–
–	7.2	O=S(O)O [Sulfurous acid]	–
9.8	10.5	NCCc1ccc(O)cc1 [Tyramine]	–
3.9	–	O=c1[nH]c(=O)c2[nH]c(=O)[nH]c2[nH]1 [Uric acid]	–
3.9	–	Cc1ccccc1C(=O)O [o-Toluic acid]	–
4.4	–	Cc1ccc(C(=O)O)cc1 [p-Toluic acid]	–
